Assay results reported in patent US20230141863A1, “Small Molecule Inhibitors Targeting the Sodium Channel Tamoxifen Receptor and Uses Thereof” (Northwestern University, priority 2021, published 2023).
Entries after “also recorded” stand apart in the source; their conditions may differ. Read-outs that look alike come from different tables or passages of the source.

Tests used:
[1] = tested on: mice with knee hyperalgesia post DMM surgery; assay: In vivo osteoarthritis pain model (DMM), knee hyperalgesia after intra-articular injection; set-up: species or system mouse
DRG action potentials = assay: Current clamp recording of cultured DRG neuron action potentials; type: cell-based, mouse; settings: for IC50: Mus musculus, DRG neuron, 2-4 minutes of extracellular drug treatment
Description: FIG. 4. N-desmethyl tamoxifen inhibits DRG neuronal transmission. A) Exemplar action potentials recorded from an isolated DRG neuron in control and ND-Tam-treated conditions using a 1 second, 80 pA injection of current. After the experiment was complete, drug was washed out of the bath for five minutes and recovery from inhibition was retested. Consistent with previous reports, the resting membrane potential of the DRG neurons was −53.4±5 mV (Error is equal to S.D., n=109) (PMID: 8052416). B, C) The potency of ND-Tam inhibition on DRG action potential frequency and peak amplitude. Open symbols represent responses from individual cells while filled symbols represent average response per concentration. Error is equal to S.E.M. and the number of cells tested per treatment group is indicated within the parentheses. D, E) A comparison of the potency of cannabidiol (CBD) and carbamazepine (CBZ) inhibition on action potential frequency and peak amplitude. As done previously, drug concentration-INa inhibition relationships were fit to the Hill equation. Open symbols represent responses from individual cells while filled symbols represent average response per concentration. Error is equal to S.E.M. and the number of cells tested per treatment group is indicated within the parentheses.
FIG. 10. N-desmethyl tamoxifen inhibits spontaneous action potentials in sensory neurons. A) Exemplar spontaneous action potentials, recorded from a DRG neuron without injecting current, inhibited by 100 nM N-desmethyl tamoxifen. B) Morphology of a single spontaneous action potential in DRG neuron C) Inhibition of spontaneous action potential frequency by 100 nM ND-Tam (P=0.04). Open symbols represent responses from individual cells and filled symbols represent the average response. Error is equal to S.E.M. from 6 spontaneously firing DRG neurons.
DRG neurons act as a filter to electrical information from the periphery, required for the perception of pain, generated by several types of ion channels, including Navs. For that reason, the inventors compared the pharmacology of ND-Tam against cultured DRG action potentials recorded using current clamp (FIG. 4A). The inventors then compared DRG action potential frequency and amplitude before and after 2-4 minutes of extracellular drug treatment (FIG. 4A-C, FIG. 14). […] After exchanging the drug for control saline for 2 minutes, ND-Tam inhibition of action potential frequency and peak amplitude was persistent (FIG. 4A), which is consistent with the observed slow dissociation of the drug with sodium channels (FIG. 1B, D).
Dorsal root ganglia were isolated using a modified version of the previously described protocol (PMID: 26864470). All animal procedures were approved by the Institutional Animal Care and Use Committee at the Feinberg Medical School, Northwestern University. The spinal columns of 4-6-week-old […] or Nav1.8-Tomato mice (Nav1.8-Td) were removed and DRG neurons from all spinal levels were isolated for primary culture (PMID: 33827672, PMID: 31351964). The collected DRGs, containing both neuronal and non-neuronal cells, were acutely dissociated in DMEM with collagenase IV (2 mg/mL) for 30 minutes, followed by papain (25 U/mL) for 30 minutes. The cells were then triturated, filtered through a 40 μm cell strainer to remove non-dissociated cells, and washed with DMEM. […]

IC50 (DRG action potentials; 80 pA of injected current, read-out: IC50 against action potential peak amplitude): 1300 nM | IC50 (DRG action potentials; elicited by 80 pA of injected current, read-out: IC50 against action potential firing frequency): 119 nM
Compound: CC/C(=C(\c1ccccc1)c1ccc(OCCNC)cc1)c1ccccc1 [ND-Tam, 2-[4-[(Z)-1,2-diphenylbut-1-enyl]phenoxy]-N-methylethanamine]
knee hyperalgesia versus vehicle (in words) ([1]; 50 μM (~0.002 mg/kg) intra-articular, vehicle 50% EtOH, 30 minutes after injection, P=0.008): rapidly inhibited knee hyperalgesia pain compared to injection of vehicle; also recorded: provided relief from hyperalgesia compared to vehicle | area under the curve analysis of withdrawal thresholds (in words) ([1]; 50 μM intra-articular, 0-3 hours after injection): performs similar to CBD and to lidocaine over time | knee hyperalgesia versus vehicle, direct comparison study (in words) ([1]; 50 μM intra-articular, vehicle 0.1% DMSO, 30 minutes after injection): effectively inhibited knee hyperalgesia | knee withdrawal threshold versus vehicle control (in words) ([1]; 50 μM intra-articular, vehicle 0.1% DMSO, through 3 hours after injection): remained elevated compared to vehicle control through 3 hours after injection | potency against action potential frequency and peak amplitude compared with CBZ and CBD (in words) (DRG action potentials): more potent inhibitor of DRG action potential frequency and peak amplitude than CBZ and CBD | reduction of the frequency of spontaneous sensory neuron action potentials (DRG action potentials; 100 nM, three-minute extracellular application, n=6, P=0.04): 91% | inhibition of action potential frequency and peak amplitude after washout (in words) (DRG action potentials; after exchanging the drug for control saline for 2 minutes): persistent
